Test system: animals with collagen-induced arthritis
Assay: Collagen-induced arthritis in mice: treatment after disease onset, assessed by clinical score and paw swelling
Format: in vivo, male DBA/1 mice
Experimental: Arthritis was induced in male DBA/1 mice (8–10 weeks old) by intradermal injection of bovine type II collagen, purified in-house at the Kennedy Institute of Rheumatology as previously described (Miller, E. J. et al. (1972)). Collagen was administered in complete Freund's adjuvant (Difco, Detroit, Michigan). Onset of arthritis was variable, occurring from Day 14 up to Day 40 after immunization. Arthritis onset was considered to occur on the day that swelling and/or erythema were observed. Clinical score is a composite of disease severity and the number of limbs affected, and was monitored daily from onset of disease and used as an assessment of disease progress. The scoring used was: 0, Normal; 1, slight swelling with erythema; 2, pronounced swelling; 3, joint rigidity. In addition, the extent of paw swelling reflects the degree of edema in affected limbs. Arthritis increased progressively over 10 days as reflected by both clinical score and paw swelling.
Anti-TNF antibody was used in these experiments was as described by Marinova-Mutafchieva, L. et al. (2000). NB1011 was administered daily by intraperitoneal administration at 2.5 mg total dose per day. Anti-TNF antibody was compared with NB1011 because, at present, antiTNF antibody is the optimal single agent for treatment of collagen induced arthritis (Marinova-Mutafchieva, L. et al. (2000)).
Following immunization with collagen, mice were maintained until a significant clinical score for disease progression was achieved (between 2.5 and 3.5, see FIG. 1 and Methods). Mice were then treated with control saline injections, NB1011, or with anti-TNF antibody as a positive control. […] Paw swelling is an alternative measure of CIA disease severity.

Substance: 5-(2-Bromovinyl)-2′-deoxyuridine phenyl N-methoxy-L-alaninyl phosphoramidate [NB1011]
- difference between NB1011 and anti-TNF groups with regard to clinical score (FIG. 1, NB1011 compared with anti-TNF positive control): no significant difference
- disease suppression by clinical score (FIG. 1, vs saline-treated control group, p<0.05, NB1011 intraperitoneal daily, 2.5 mg total dose per day, treatment started at clinical score between 2.5 and 3.5): significant disease suppression
- difference between NB1011 and anti-TNF groups with regard to paw swelling (FIG. 2, NB1011 compared with anti-TNF positive control): no significant difference
- suppression of swelling relative to anti-TNF group (FIG. 2, qualitative remark): may have been less dramatic
- disease suppression by paw swelling (FIG. 2, vs saline-treated control group, p<0.05, NB1011 intraperitoneal daily, 2.5 mg total dose per day): significant disease suppression
- activity by comparison with earlier reported work on other agents (comparison with literature (Malfait 2000; Miotla 2000; Marinova-Mutafchieva 2000)): superior to anti-angiogenesis agents, an anti-CD4 immunosuppressive agent, and cannabidiol

From patent publication US7138388B2, “Methods to treat autoimmune and inflammatory conditions” (Celmed Oncology (USA), Inc., priority 2001, dated 2006)
